In patent US20120149780A1, “Method of Use of Vitamin K as Energy Enhancer in Diverse Disease States” (priority 2009, published 2012):

What was measured:
[1] = 500 μg/day, 36-month, older men; cited from earlier work
[2] = literature supplemental trials, oral supplementation; cited from earlier work
[3] = Blood pressure in individual subjects taking vitamin K2-7 (case reports); type: in vivo, human
Procedure: Person, with hypercholesterolemia (Lipid Profile; 200 mg—Total cholesterol) for which they are taking Atorvastatin 5 mg one per day and 75 mg of Aspirin one per/day since last five years. Underwent angioplasty. They were also having blood pressure which ranges from 136-134/90-88 mmHg. They were taking Telmisartan 40 mg/day from last 4 years for hypertension. Then about 6 months ago they started taking vitamin K2-7 in daily dose of 200 μg. Currently they have stopped taking anti-hypertensive medication from last 1 month. Over a period of 1 and ½ months it is observed that their blood pressure has dropped down to 118-114/78-84 mmHg. Now they are off any anti-hypertensive medicine and continues with vitamin K2-7 only.
(§1) Person was having hypertension (160/114 mmHg) but was not on any medication. They complained of fatigue and low energy level. They were put on 3 capsules per day of 100 μg of vitamin K2-7 for 1 month and then on 2 capsule per day of 350 μg of vitamin K2-7 for the next 2 months under close observation by medical doctor. […] They continued the medicine for next couple of month with same dose i.e. 2 capsules per day of 350 μg of vitamin K2-7. […] Then they were taken off from the treatment for 15 days. Blood pressure shot up to 146/108 mmHg, They were again put on vitamin K2-7, 350 μg, 2 capsules per day and their blood pressure came down to 136/100 mmHg.
(§2) Person, healthy otherwise, was having blood pressure on higher side i.e. 130/90 mmHg. They were advised to start taking vitamin K2-7, in a dose of 650 μg, one capsule per day.

[4] = Fatigue, energy level and exertion endurance in individual subjects (case reports); type: in vivo, human
Procedure: Person, suffering from general fatigue. They used to go to Gold gym 5-6 times per month. On the treadmill they used to walk at 5 km/hr speed at the start of the exercise and then gradually increase it to 6 km/hr in the next 15 minutes. When they started taking vitamin K2-7 350 μg per day, within 2 weeks of taking vitamin K2-7, they could start at 6 km/hr and go on up to 6.4 km/hr on the treadmill without feeling the strain they felt earlier. […] Their treadmill experience, was now smooth and ‘effortless’.
(§3) Person, was diagnosed to have bilateral ovarian cancer in 2005, with ascites and abdominal lymph node metastases. They have undergone surgery and several courses of chemotherapy. […] They are currently under chemotherapy cycles. They tolerated chemotherapy reasonably well but complained of marked fatigue and low energy levels. […] They were given a larger dose of vitamin K2-7 per day. […] They are continued on the dose of vitamin K2-7 for two months.
(§4) Their complaints were fatigue, low energy level, muscle cramps and tingling and numbness of lower limbs. […] These returned with drawal and were relieved with re-therapy. […] They were started 350 μg per day of vitamin K2-7 over the two months period.
as §1
Person, was heaving history of Spondylosis, Diabetes mellitus and Hypertension. Five years ago they were operated for cataract (right eye). They are on regular medicine i.e. Atenol50™, one per day, after breakfast, Insulin2™ one per day after lunch, and Diaonil5™, two times a day. They were complaining of fatigue and lack of energy so much so that they found ascending 20 steps at a time difficult with related exhaustion and breathlessness. They were advised to take vitamin K2-7, 350 μg, one cap per day.

[5] = Muscle cramps and neuropathic symptoms of lower limbs (case report); type: in vivo, human; details: Example 06: person
Procedure: as §4

[6] = Post-chemo restlessness/akathisia in ovarian cancer patient (case report); type: in vivo, human; details: Example 05: person, ovarian cancer under chemotherapy
Excerpt: as §3

CEA = CEA levels in ovarian cancer patient (case report); type: in vivo, human; details: Example 05: person, under chemotherapy and vitamin K2-7
Excerpt: as §3

[7] = Side effects / adverse effects noted during treatment (case reports); type: in vivo, human
Procedure: as §4, §2

In the case of vitamin K, the “progression of insulin resistance” value [1] is given as “reduction in progression of insulin resistance”.

For `CN(CC(=O)O)C(=N)N` [creatine], the “effect of supplementation on VO2max / aerobic capacity / exercise performance” value [2] is listed as “improves exercise performance”.

For `OC[C@H]1O[C@@H](n2cnc3c(O)ncnc32)[C@H](O)[C@@H]1O` [Inosine], the “effect of supplementation on VO2max / aerobic capacity / exercise performance” value [2] is given as “no effect on aerobic performance”.

For `CC(C)=CCC/C(C)=C/CC/C(C)=C/CC/C(C)=C/CC/C(C)=C/CC/C(C)=C/CC/C(C)=C/CC1=C(C)C(=O)c2ccccc2C1=O` [vitamin K2-7], the blood pressure ([3]; Example 07: 2x350 μg/day restarted after 15 days off treatment (146/108 off treatment)) was 136/100, the blood pressure ([3]; Example 07: continued 2x350 μg/day for next couple of months) was 138/104 and the blood pressure ([3]; Example 07: person, 3x100 μg/day 1 month then 2x350 μg/day 2 months, baseline 160/114) was 140/108. The blood pressure ([3]; Example 08: person, 650 μg one capsule/day, 2 months, baseline 130/90) was 112/80, the general fatigue ([4]; Example 04: person, 350 μg/day) was “general fatigue had reduced” and the treadmill starting speed ([4]; Example 04: person, 350 μg/day, within 2 weeks, earlier start 5 km/hr) was 6 km/hr. The treadmill speed reached ([4]; Example 04: person, 350 μg/day, within 2 weeks, earlier up to 6 km/hr) was 6.4 km/hr, the “fatigue and energy level” value ([4]; Example 05: person, ovarian cancer under chemotherapy, 100 μg/day) was “not much relief in fatigue and energy level” and the “fatigue and energy level” value ([4]; Example 05: person, ovarian cancer under chemotherapy, larger dose, within six weeks) was “less fatigue and significant improvement in the energy level”. For the same compound, the “fatigue and low energy levels” value ([4]; Example 06: person, 100 μg/day) was “only mildly relieved”, the “fatigue and energy level” value ([4]; Example 06: person, 350 μg/day over two months) was “significant relief in fatigue and reasonable increases in the energy level” and the “fatigue and energy at work” value ([4]; Example 07: person, hypertensive, 2x350 μg/day) was “improvement in fatigue and feels more energetic at work”. For the same compound, the “energy / ability to climb stairs” value ([4]; Example 09: person, diabetes and hypertension, 350 μg one cap/day, after a month) was “started feeling more energetic and would walk up the stairs easily without any problem”, the “symptoms of the nerves and muscle (cramps, tingling and numbness of lower limbs)” value ([5]; 100 μg/day) was “significantly relieved” and the “cramps and neuropathic symptoms” value ([5]; 350 μg/day over two months) was “markedly reduced”. For the same compound, the post-chemo restlessness/akathisia [6] was “did not benefit”, the CEA levels (CEA) was “dropped markedly” and the side effects ([7]; Example 06: person, 100 then 350 μg/day) was “no side effects”. The adverse effects ([7]; Example 08: person, 650 μg/day, 2 months) was “no adverse effects”.

In the case of vitamin E, the “effect of supplementation on VO2max / aerobic capacity / exercise performance” value [2] is given as “neither vitamin E nor C, either alone or in combination, enhanced exercise performance”.

For `O=C1O[C@H]([C@@H](O)CO)C(O)=C1O` [vitamin C], the “effect of supplementation on VO2max / aerobic capacity / exercise performance” value [2] is listed as “neither vitamin E nor C, either alone or in combination, enhanced exercise performance”.

For `CN(CC(=O)O)C(=N)N.O` [Creatine monohydrate], the “effect of supplementation on VO2max / aerobic capacity / exercise performance” value [2] is listed as “did not increase performance”.

In the case of phosphate [Oral phosphate], the “effect of supplementation on VO2max / aerobic capacity / exercise performance” value [2] is listed as “no improvement in aerobic capacity”.

In the case of `NC(=O)C1=CN([C@@H]2O[C@H](COP(=O)(O)OP(=O)(O)OC[C@H]3O[C@@H](n4cnc5c(N)ncnc54)[C@H](O)[C@@H]3O)[C@@H](O)[C@H]2O)C=CC1` [NADH, Nicotinamide Adenine Dinucleotide Hydride], the “effect of supplementation on VO2max / aerobic capacity / exercise performance” value [2] is listed as “no effects on maximal oxygen uptake VO2max, maximal anaerobic running time or mental performance”.

In the case of `C[N+](C)(C)C[C@H](O)CC(=O)[O-]` [L-carnitine], the “effect of supplementation on VO2max / aerobic capacity / exercise performance” value [2] is given as “unlikely to be associated with the enhanced exercise performance”.

In the case of `CC(O)C(=O)O` (stereo not drawn) [lactate], the “effect of supplementation on VO2max / aerobic capacity / exercise performance” value [2] is given as “unaffected”.

With `CC(CN1c2ccccc2Sc2ccccc21)N(C)C` (stereo not drawn) [phenergan, reference compound] the post-chemo restlessness/akathisia [6] was “relieved”.
